Experimental data taken from the NIST ThermoML archive (doi:10.1021/je4005883).
Numbers after ± are expanded uncertainties.

How the values were obtained:
[1] = wn = mass fraction of the nth substance listed; conditions: 101.33 kPa, Liquid; for speed of sound: Pulse-echo method; for mass density: Vibrating tube method
[2] = 298.15 K; 101.33 kPa; Liquid; Vibrating tube method

CCN1CCCC1=O [1-ethyl-2-pyrrolidinone] + O
[1]
Conditions | mass density, w2 = 0.7 [kg/m3] | mass density, w2 = 0.8 [kg/m3] | mass density, w2 = 0.9 [kg/m3] | speed of sound, w2 = 0.7 [m/s] | speed of sound, w2 = 0.8 [m/s] | speed of sound, w2 = 0.9 [m/s] | viscosity, w2 = 0.7 [mPa·s] | viscosity, w2 = 0.8 [mPa·s] | viscosity, w2 = 0.9 [mPa·s]
293.15 K | 1013.82 ± 0.58 | 1007.67 ± 0.57 | 1002.08 ± 0.57 | 1671.7 ± 2.6 | 1620 ± 2.6 | 1555.7 ± 2.5 | 2.857 ± 0.065 | 2.068 ± 0.048 | 1.474 ± 0.035
303.15 K | 1008.12 ± 0.58 | 1003.22 ± 0.57 | 998.33 ± 0.57 | 1658.9 ± 2.6 | 1620 ± 2.6 | 1568.9 ± 2.5 | 2.03 ± 0.05 | 1.52 ± 0.04 | 1.123 ± 0.027
313.15 K | 1001.9 ± 0.58 | 998.11 ± 0.57 | 994.6 ± 0.57 | 1644 ± 2.6 | 1616.3 ± 2.6 | 1576.8 ± 2.5 | 1.522 ± 0.036 | 1.176 ± 0.029 | 0.891 ± 0.022
323.15 K | 995.12 ± 0.58 | 992.41 ± 0.57 | 989.74 ± 0.57 | 1627.1 ± 2.6 | 1608.9 ± 2.6 | 1580.3 ± 2.5 | 1.196 ± 0.029 | 0.942 ± 0.024 | 0.73 ± 0.02

CCN1CCCC1=O [1-ethyl-2-pyrrolidinone] + NCCO
[1]
Conditions | mass density, w2 = 0.7 [kg/m3] | mass density, w2 = 0.8 [kg/m3] | mass density, w2 = 0.9 [kg/m3] | speed of sound, w2 = 0.7 [m/s] | speed of sound, w2 = 0.8 [m/s] | speed of sound, w2 = 0.9 [m/s] | viscosity, w2 = 0.7 [mPa·s] | viscosity, w2 = 0.8 [mPa·s] | viscosity, w2 = 0.9 [mPa·s]
293.15 K | 1009.04 ± 0.66 | 1011.7 ± 0.64 | 1014.01 ± 0.63 | 1653.3 ± 2.6 | 1679.7 ± 2.6 | 1706.9 ± 2.7 | 12.25 ± 0.24 | 16.01 ± 0.3 | 19.95 ± 0.36
303.15 K | 1000.7 ± 0.66 | 1003.49 ± 0.64 | 1005.95 ± 0.62 | 1618.6 ± 2.6 | 1645.9 ± 2.6 | 1674 ± 2.7 | 8.104 ± 0.17 | 10.27 ± 0.2 | 12.48 ± 0.23
313.15 K | 992.31 ± 0.66 | 995.23 ± 0.63 | 997.83 ± 0.62 | 1584 ± 2.6 | 1611.7 ± 2.6 | 1641.2 ± 2.7 | 5.666 ± 0.12 | 6.967 ± 0.14 | 8.35 ± 0.17
323.15 K | 983.87 ± 0.65 | 986.93 ± 0.63 | 989.65 ± 0.61 | 1549.5 ± 2.6 | 1578.2 ± 2.6 | 1608 ± 2.7 | 4.173 ± 0.095 | 5.017 ± 0.11 | 5.863 ± 0.13

NCCO [2-aminoethan-1-ol]
Conditions | mass density [kg/m3]
[2] | 1011.98 ± 0.46
